Source: patent US20200085776A1, “Methods of Reducing C-Reactive Protein and/or Treating Cardiovascular Disease” (CARDAX, INC., priority 2018, published 2020)
Like-named read-outs stand apart in the source and are kept apart here.

Key:
Type in all cases: in vivo, human
Triglycerides = assay: Fasting lipid panel: triglycerides, CHASE clinical study; settings: Group Z 48 mg BID; baseline to Week 12; subjects with hyperlipidemia
From the text: Blood samples shall be obtained under fasted conditions for a lipid panel at V2, V4, V6, V7, and V8. This panel shall include total cholesterol, LDL-C, VLDL-C, HDL-C, and triglycerides. A minimum eight-hour fast (water allowed) is required for the lipid panel.
Fasting lipid profiles and fasting chemistry panels may be obtained within the visit time window on a day separate from the scheduled office visit, within two days before or after the other study procedures. A minimum of eight hours fasted (water allowed ad lib) is required.
(§1) Table 7M provides the changes in lipid levels (mg/dL) (V2 to V6) for subjects.

Oxidized LDL = assay: Oxidized LDL, CHASE clinical study; design: Oxidized LDL Mean (SD) / Oxidized LDL Median / Oxidized LDL Min / Oxidized LDL Max / Oxidized LDL V2 to V6 Change Median / Oxidized LDL V2 to V6 Change Max: unit not given here; settings: all subjects; for Oxidized LDL V2 to V6 % Change Max / Oxidized LDL V2 to V6 % Change Mean (SD) / Oxidized LDL V2 to V6 % Change Median / Oxidized LDL V2 to V6 % Change Min / Oxidized LDL V2 to V6 Change Max / Oxidized LDL V2 to V6 Change Mean (SD) / Oxidized LDL V2 to V6 Change Median / Oxidized LDL V2 to V6 Change Min: baseline to Week 12
From the text: Samples shall be obtained for TNF-α, IL-1β, IL-6, IFN-γ, and oxLDL at V2, V4, V6, and V8 I.
as §1

[1] = Astaxanthin levels in plasma (PK), CHASE clinical study; settings: for concentration at 12 week: human, oral
From the text: Blood samples shall be collected for astaxanthin analysis at V2, V4, V6, and V8.
The approximate time of the most recent dose prior to PK sampling shall be documented. PK sampling is sparse, sample acquisition in relationship to the most recent dose will vary, and formal PK calculations (e.g., Tmax, Cmax, T1/2, AUC) are not possible from the collections scheduled. Analysis will consist of a tabular listing and comparison by treatment group with calculation of the mean, median, standard deviation, maximum, and minimum at the nominal visits. Sub-analysis by subject demographic and clinical characteristics (e.g., gender, age, weight, and smoking status) may be performed at the discretion of the Sponsor.
PK samples will be collected into a 6.0 mL K2EDTA tube, gently inverted sufficient times to mix the sample and anticoagulant, and placed in an ice bath for 15 minutes.
The blood samples will be centrifuged at 3500 rpm for ten minutes at room temperature for 10 minutes. Any hemolyzed or clotted samples will be documented in the study data.
All resultant plasma will be split into two approximately equal aliquots and frozen at −60 to −90° C. Samples may be initially placed on dry ice prior to being stored in the appropriate freezer.

[2] = Group X 12 mg BID, V2 baseline pre-dose
[3] = Group Z 48 mg BID, V2 baseline pre-dose
[4] = Group X 12 mg BID, V2 baseline pre-dose, BQL (less than 9.77 ng/mL) treated as 4.885
[5] = Group Z 48 mg BID, V2 baseline pre-dose, BQL (less than 9.77 ng/mL) treated as 4.885

CC1=C(/C=C/C(C)=C/C=C/C(C)=C/C=C/C=C(C)/C=C/C=C(C)/C=C/C2=C(C)C(=O)C(O)CC2(C)C)C(C)(C)CC(O)C1=O (centres unmarked) [Astaxanthin, astaxanthin]
Triglycerides V2 to V6 % Change Max (Triglycerides): 115.2% | Triglycerides V2 to V6 % Change Mean (SD) (Triglycerides): 0.07 (48.86) % | Triglycerides V2 to V6 % Change Median (Triglycerides): −21.5% | Triglycerides V2 to V6 % Change Min (Triglycerides): −49.5% | Triglycerides V2 to V6 Change Max (Triglycerides): 348.0 mg/dL | Triglycerides V2 to V6 Change Mean (SD) (Triglycerides): −12.0 (124.4) mg/dL | Triglycerides V2 to V6 Change Median (Triglycerides): -29.0 mg/dL | Triglycerides V2 to V6 Change Min (Triglycerides): -178 mg/dL | Oxidized LDL Max (Oxidized LDL; [2]): 87.00 | Oxidized LDL Mean (SD) (Oxidized LDL; [2]): 51.64 (18.34) | Oxidized LDL Median (Oxidized LDL; [2]): 49.00 | Oxidized LDL Min (Oxidized LDL; [2]): 29.00 | Oxidized LDL Max (Oxidized LDL; Group X 12 mg BID, V6 Week 12): 85.00 | Oxidized LDL Mean (SD) (Oxidized LDL; Group X 12 mg BID, V6 Week 12): 51.18 (17.62) | Oxidized LDL Median (Oxidized LDL; Group X 12 mg BID, V6 Week 12): 46.00 | Oxidized LDL Min (Oxidized LDL; Group X 12 mg BID, V6 Week 12): 34.00 | Oxidized LDL V2 to V6 % Change Max (Oxidized LDL; Group X 12 mg BID): 17.24% | Oxidized LDL V2 to V6 % Change Mean (SD) (Oxidized LDL; Group X 12 mg BID): 0.41 (12.46) % | Oxidized LDL V2 to V6 % Change Median (Oxidized LDL; Group X 12 mg BID): 2.86% | Oxidized LDL V2 to V6 % Change Min (Oxidized LDL; Group X 12 mg BID): −26.0% | Oxidized LDL V2 to V6 Change Max (Oxidized LDL; Group X 12 mg BID): 6.00 | Oxidized LDL V2 to V6 Change Mean (SD) (Oxidized LDL; Group X 12 mg BID): −0.45 (5.65) | Oxidized LDL V2 to V6 Change Median (Oxidized LDL; Group X 12 mg BID): 1.00 | Oxidized LDL V2 to V6 Change Min (Oxidized LDL; Group X 12 mg BID): −13.0 | Oxidized LDL Max (Oxidized LDL; [3]): 86.00 | Oxidized LDL Mean (SD) (Oxidized LDL; [3]): 55.00 (17.80) | Oxidized LDL Median (Oxidized LDL; [3]): 59.00 | Oxidized LDL Min (Oxidized LDL; [3]): 24.00 | Oxidized LDL Max (Oxidized LDL; Group Z 48 mg BID, V6 Week 12): 77.00 | Oxidized LDL Mean (SD) (Oxidized LDL; Group Z 48 mg BID, V6 Week 12): 46.22 (15.21) | Oxidized LDL Median (Oxidized LDL; Group Z 48 mg BID, V6 Week 12): 48.00 | Oxidized LDL Min (Oxidized LDL; Group Z 48 mg BID, V6 Week 12): 25.00 | Oxidized LDL V2 to V6 % Change Max (Oxidized LDL; Group Z 48 mg BID): 24.39% | Oxidized LDL V2 to V6 % Change Mean (SD) (Oxidized LDL; Group Z 48 mg BID): −12.7 (19.64) % | Oxidized LDL V2 to V6 % Change Median (Oxidized LDL; Group Z 48 mg BID): −10.1% | Oxidized LDL V2 to V6 % Change Min (Oxidized LDL; Group Z 48 mg BID): −43.8% | Oxidized LDL V2 to V6 Change Max (Oxidized LDL; Group Z 48 mg BID): 10.00 | Oxidized LDL V2 to V6 Change Mean (SD) (Oxidized LDL; Group Z 48 mg BID): −8.22 (12.33) | Oxidized LDL V2 to V6 Change Median (Oxidized LDL; Group Z 48 mg BID): −4.00 | Oxidized LDL V2 to V6 Change Min (Oxidized LDL; Group Z 48 mg BID): −36.0 | astaxanthin levels Max [1, 4]: 4.89, 4.89 ng/mL | astaxanthin levels Mean (SD) [1, 4]: 4.89 (0.00) ng/mL | astaxanthin levels Median [1, 4]: 4.89 ng/mL | astaxanthin levels Min [1, 4]: 4.89, 4.89 ng/mL | astaxanthin levels Max ([1]; Group X 12 mg BID, V6 Week 12): 1282 ng/mL | astaxanthin levels Min ([1]; Group X 12 mg BID, V6 Week 12): 190.9 ng/mL | astaxanthin levels Max [1, 5]: 221.0 ng/mL | astaxanthin levels Mean (SD) [1, 5]: 17.12 (49.44) ng/mL | astaxanthin levels Median [1, 5]: 4.89 ng/mL | astaxanthin levels Min [1, 5]: 4.89 ng/mL | astaxanthin levels Max ([1]; Group Z 48 mg BID, V6 Week 12): 7030 ng/mL | astaxanthin levels Min ([1]; Group Z 48 mg BID, V6 Week 12): 409.0 ng/mL | concentration at 12 week ([1]; 12 mg, Group X 12 mg BID, V6 Week 12, read-out: astaxanthin levels Mean (SD)): 785 ng/mL | concentration at 12 week ([1]; 12 mg, Group X 12 mg BID, V6 Week 12, read-out: astaxanthin levels Median): 790 ng/mL | concentration at 12 week ([1]; 48 mg, Group Z 48 mg BID, V6 Week 12, read-out: astaxanthin levels Mean (SD)): 2590 ng/mL | concentration at 12 week ([1]; 48 mg, Group Z 48 mg BID, V6 Week 12, read-out: astaxanthin levels Median): 2180 ng/mL
